SMILES strings stand for the structures. Marks after values point to notes of the source that are not given here.

One assay concerns the target T1, recombinant Axl tyrosine kinase (Homo sapiens, UniProt P30530).
T1 construct: encompassing amino acids 473 to 894 of Axl; GST (N); made in house; host or cells: SF126 insect cells
T1 sequence (P30530 473-894): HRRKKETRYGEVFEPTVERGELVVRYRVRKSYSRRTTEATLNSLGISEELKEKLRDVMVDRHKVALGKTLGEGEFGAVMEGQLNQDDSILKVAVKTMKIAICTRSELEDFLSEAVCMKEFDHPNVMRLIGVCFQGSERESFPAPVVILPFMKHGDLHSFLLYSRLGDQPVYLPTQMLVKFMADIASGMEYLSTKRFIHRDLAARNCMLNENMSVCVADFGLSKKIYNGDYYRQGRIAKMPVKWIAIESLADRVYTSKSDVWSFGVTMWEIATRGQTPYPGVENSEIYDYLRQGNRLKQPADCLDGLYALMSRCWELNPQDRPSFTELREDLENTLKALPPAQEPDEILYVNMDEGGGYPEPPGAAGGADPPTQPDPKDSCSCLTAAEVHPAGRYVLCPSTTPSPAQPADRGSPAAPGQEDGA
Briefly: In vitro Axl kinase assay (AlphaScreen), Test (a). It is filed as biochemical. Particulars: 1 μM; mean calculated from a larger number of replicates than the first value.
Consider `Nc1ncc(-c2ccc(CN3CCOCC3)cc2)cc1-c1nc2cnccc2o1` [Example 8A.18], for which the “% Axl tyrosine kinase inhibition at 1 μM concentration (second value, †)” value is recorded as 99.0%.
With `Nc1ncc(-c2cccc(N3CCOCC3)c2)cc1-c1nc2cnccc2o1` [Example 8A.4], the “% Axl tyrosine kinase inhibition at 1 μM concentration (second value, †)” value is recorded as 86.6%.

The same assay, now with this note: test compound at 1 μM; first value quoted.
Take `Nc1ncc(-c2ccc(C(=O)NCCN3CCCC3)cc2)cc1-c1nc2cccnc2o1` [Example 45A.55]: the “% Axl tyrosine kinase inhibition at 1 μM concentration” value is reported as 98.9%.
On the same count and under the same terms, then `Cc1nn(C2CCN(C)CC2)cc1-c1cnc(N)c(-c2nc3ccccc3o2)n1` [Example 41.21], with 100.0%.
`CS(=O)(=O)c1cccc(-c2cnc(N)c(-c3nc4ccccc4o3)n2)c1` [Example 20.9]: the “% Axl tyrosine kinase inhibition at 1 μM concentration” value is recorded as 92.1%.
On to `Nc1ncc(-c2ccc(C(=O)N3CCC(O)CC3)cc2)cc1-c1nc2ccccc2o1` [Example 2.11], for which the “% Axl tyrosine kinase inhibition at 1 μM concentration” value was 98.9%.
For the molecule `NCCCCOc1ccc(-c2cnc(N)c(-c3nc4ncccc4o3)c2)cc1` [Example 43B.34], the “% Axl tyrosine kinase inhibition at 1 μM concentration” value was 95.7%.
Take `Nc1ncc(-c2cnn(CCCN3CCC[C@@H]3CO)c2)cc1-c1nc2ccccc2o1` [Example 31.2]: the “% Axl tyrosine kinase inhibition at 1 μM concentration” value worked out at 99.9%.
On to `COc1cccc2nc(-c3cc(-c4cnn(C5CCN(C)CC5)c4)cnc3N)oc12` [Example 41.27], for which the “% Axl tyrosine kinase inhibition at 1 μM concentration” value was found to be 100.0%.
On the same count and under the same terms, then `CN1CCC(n2cc(-c3cnc(N)c(-c4nc5ncccc5o4)c3)cn2)CC1` [Example 41.4], with 99.8%; and `COc1cc(-c2cnc(N)c(-c3nc4ncccc4o3)c2)ccc1OC1CCNCC1` [Example 43C.29], with 99.9%; and `NC(=O)c1cccc(-c2cnc(N)c(-c3nc4ccccc4o3)c2)c1` [Example 2.34], with 67.3%.
In the case of `Nc1ncc(-c2cccc(CN3CCCC3)c2)cc1-c1nc2ccccc2o1` [Example 2.6], the “% Axl tyrosine kinase inhibition at 1 μM concentration” value worked out at 99.0%.
On the same count and under the same terms, the same measure for `CN1CCC(Oc2ccc(-c3cnc(N)c(-c4nc5ncccc5o4)c3)cc2)CC1` [Example 43B.11]: 98.1%.
Turning to `N#Cc1nn(C2CCNCC2)cc1-c1cnc(N)c(-c2nc3ccccc3o2)c1` [Example 62.1], the “% Axl tyrosine kinase inhibition at 1 μM concentration” value is reported as 100.0%.
`Nc1ncc(-c2ccc(C(=O)N3CCC(N)C3)cc2)cc1-c1nc2cccnc2o1` (stereo not shown) [Example 45A.79]: the “% Axl tyrosine kinase inhibition at 1 μM concentration” value came out at 99.0%.
Same read-out and setting: then `CCN(CC)CCCOc1ccc(-c2cnc(N)c(-c3nc4ncccc4o3)c2)cc1OC` [Example 43C.18], with 99.8%.
With `Nc1ncc(-c2cnn(CCN3CCC[C@@H]3CO)c2)cc1-c1nc2ccccc2o1` [Example 31.8], the “% Axl tyrosine kinase inhibition at 1 μM concentration” value was determined as 99.7%.
For the molecule `CN1CCCCC1CNC(=O)c1ccc(-c2cnc(N)c(-c3nc4cccnc4o3)c2)cc1` (stereo not shown) [Example 45A.26], the “% Axl tyrosine kinase inhibition at 1 μM concentration” value is given as 99.6%.
The same measure, in the same setting: the same measure for `Nc1ncc(-c2ccc(OC[C@H]3CCCN3)cc2)cc1-c1nc2ncccc2o1` [Example 43B.28]: 98.7%; for `Nc1ncc(-c2cnn(C3CCN(C(=O)CO)CC3)c2)cc1-c1nc2ncccc2o1` [Example 57.2]: 99.4%; for `CN1CCN(c2ccc(-c3cnc(N)c(-c4nc5ncccc5o4)c3)cc2)CC1` [Example 25.7]: 99.1%.
`CN1CCCC(n2cc(-c3cnc(N)c(-c4nc5ccccc5o4)c3)cn2)C1` (stereo not shown) [Example 41.2]: the “% Axl tyrosine kinase inhibition at 1 μM concentration” value is 99.3%.
For the molecule `CN1CCC(n2cc(-c3cnc(N)c(-c4nc5ccccc5o4)c3)cn2)C1` (stereo not shown) [Example 41.9], the “% Axl tyrosine kinase inhibition at 1 μM concentration” value stood at 100.0%.
Still for that read-out and setting: the same measure for `Nc1ncc(-c2ccc(C(=O)N3CCC(O)CC3)cc2)cc1-c1nc2ncccc2o1` [Example 10A.13]: 91.1%; for `CN(C)S(=O)(=O)c1cccc(-c2cnc(N)c(-c3nc4ccccc4o3)c2)c1` [Example 2.39]: 17.1* %; for `CS(=O)(=O)Nc1ccc(-c2cnc(N)c(-c3nc4ccccc4o3)c2)cc1` [Example 2.27]: 98.0%.
Take `CC(=O)N1CCC(n2cc(-c3cnc(N)c(-c4nc5ccccc5o4)c3)cn2)CC1` [Example 34.1]: the “% Axl tyrosine kinase inhibition at 1 μM concentration” value turned out to be 99.8%.
As to `CN(C)C(=O)CN1CCN(C(=O)c2ccc(-c3cnc(N)c(-c4nc5ncccc5o4)c3)cc2)CC1` [Example 45B.6], the “% Axl tyrosine kinase inhibition at 1 μM concentration” value is 95.9%.
`NC(=O)c1ccc(-c2cnc(N)c(-c3nc4cnccc4o3)c2)cc1` [Example 8A.9]: the “% Axl tyrosine kinase inhibition at 1 μM concentration” value is listed as 98.7%.
Turning to `CO[C@H](C)C(=O)N1CCC(n2cc(-c3cnc(N)c(-c4nc5ncccc5o4)c3)cn2)CC1` [Example 59.2], the “% Axl tyrosine kinase inhibition at 1 μM concentration” value is 98.1%.
The same measure, in the same setting: then `N#CCc1ccc(-c2cnc(N)c(-c3nc4ccccc4o3)n2)cc1` [Example 20.19], with 98.3%; and `CN1CCN(C(=O)c2cccc(-c3cnc(N)c(-c4nc5cnccc5o4)c3)c2)CC1` [Example 8A.19], with 94.3%.
As for `CN1CCCC(NC(=O)c2ccc(-c3cnc(N)c(-c4nc5cccnc5o4)c3)cc2)C1` (stereo not shown) [Example 45A.19], the “% Axl tyrosine kinase inhibition at 1 μM concentration” value was 98.7%.
On the same count and under the same terms, then `COCc1nn(C2CCN(C)CC2)cc1-c1cnc(N)c(-c2nc3c(F)cccc3o2)c1` [Example 41.34], with 100.0%; and `CC(C)(C)OC(=O)N1CCC(C(=O)Nc2cccc(-c3cnc(N)c(-c4nc5cccnc5o4)c3)c2)CC1` [Example 9A.3], with 73.4%; and `Nc1ncc(-c2cccc(CN3CCOCC3)c2)cc1-c1nc2ccccc2o1` [Example 2.22], with 97.9%.
With `CN(C)c1cccc(-c2cnc(N)c(-c3nc4ccccc4o3)n2)c1` [Example 20.15], the “% Axl tyrosine kinase inhibition at 1 μM concentration” value turned out to be 96.9%.
As for `Nc1ncc(-c2ccc(C(=O)NCCN3CCOCC3)cc2)cc1-c1nc2ncccc2o1` [Example 45B.3], the “% Axl tyrosine kinase inhibition at 1 μM concentration” value stood at 97.7%.
Consider `CNC(=O)c1cccc2nc(-c3cc(-c4cnn(C5CCN(C)CC5)c4)cnc3N)oc12` [Example 41.36], for which the “% Axl tyrosine kinase inhibition at 1 μM concentration” value is on record as 100.0%.
For the molecule `Nc1ncc(-c2cccc(N3CCOCC3)c2)nc1-c1nc2ccccc2o1` [Example 20.8], the “% Axl tyrosine kinase inhibition at 1 μM concentration” value was determined as 98.9%.
Consider `Nc1ncc(-c2cccc(C(=O)NC3CC3)c2)cc1-c1nc2cccnc2o1` [Example 9A.17], for which the “% Axl tyrosine kinase inhibition at 1 μM concentration” value worked out at 73.2%.
Take `Nc1ncc(-c2ccc(CN3CCOCC3)cc2)cc1-c1nc2cnccc2o1` [Example 8A.18]: the “% Axl tyrosine kinase inhibition at 1 μM concentration” value came to 98.9%.
As to `Nc1ncc(-c2ccc(C(=O)N3CCC(C4CCNCC4)CC3)cc2)cc1-c1nc2cccnc2o1` [Example 45A.86], the “% Axl tyrosine kinase inhibition at 1 μM concentration” value is 95.8%.
For `Nc1ncc(-c2ccc(OCCCN3CCCC3)cc2)cc1-c1nc2ncccc2o1` [Example 43B.18], the “% Axl tyrosine kinase inhibition at 1 μM concentration” value stood at 99.9%.
As to `Nc1ncc(-c2ccc(OCCN3CCNCC3)cc2)cc1-c1nc2ncccc2o1` [Example 43B.29], the “% Axl tyrosine kinase inhibition at 1 μM concentration” value came out at 93.6%.
`Nc1ncc(-c2cccc(N3CCOCC3)c2)cc1-c1nc2cnccc2o1` [Example 8A.4]: the “% Axl tyrosine kinase inhibition at 1 μM concentration” value turned out to be 89.8%.
As for `COCc1nn(C2CCNCC2)cc1-c1cnc(N)c(-c2nc3c(F)cccc3o2)c1` [Example 62.7], the “% Axl tyrosine kinase inhibition at 1 μM concentration” value worked out at 100.0%.
Consider `Nc1ncc(-c2ccc(C(=O)N3CCC(N4CCCCC4)CC3)cc2)cc1-c1nc2cccnc2o1` [Example 45A.52], for which the “% Axl tyrosine kinase inhibition at 1 μM concentration” value came out at 94.3%.
As to `CCN1CCCC1CNC(=O)c1ccc(-c2cnc(N)c(-c3nc4cccnc4o3)c2)cc1` (stereo not shown) [Example 45A.72], the “% Axl tyrosine kinase inhibition at 1 μM concentration” value amounted to 99.6%.

The same assay, now with this note: test compound at 1 μM; first value quoted; read-out: % Axl tyrosine kinase inhibition at 1 μM concentration.
Take `CN1CCC(n2cc(-c3cnc(N)c(-c4nc5cccc(CO)c5o4)c3)cn2)CC1` [Example 65, [2-[2-amino-5-[1-(1-methyl-4-piperidyl)pyrazol-4-yl]-3-pyridyl]-1,3-benzoxazol-7-yl]methanol]: the inhibition at 1 µM was determined as 100%.
As for `Nc1ncc(-c2cnn(C3CCNCC3)c2)nc1-c1nc2ccc(F)cc2o1` [Example 17A.1, 3-(6-fluoro-1,3-benzoxazol-2-yl)-5-[1-(4-piperidyl)pyrazol-4-yl]pyrazin-2-amine], the inhibition at 1 µM amounted to 98.5%.
Take `COCCOC(=O)N1CCC(n2cc(-c3cnc(N)c(-c4nc5ncccc5o4)c3)cn2)CC1` [Example 54, 2-methoxyethyl 4-[4-(6-amino-5-oxazolo[4,5-b]pyridin-2-yl-3-pyridyl)pyrazol-1-yl]piperidine-1-carboxylate]: the inhibition at 1 µM came to 99.5%.
On the same count and under the same terms, then `CN1CCC(n2cc(-c3cnc(N)c(-c4nc5cccc(C#N)c5o4)c3)cn2)CC1` [Example 64, 2-[2-amino-5-[1-(1-methyl-4-piperidyl)pyrazol-4-yl]-3-pyridyl]-1,3-benzoxazole-7-carbonitrile], with 99.1%.

The assay is the same for the next values; noted with them: test compound at 30 μM.
Regarding `CN(C)S(=O)(=O)c1cccc(-c2cnc(N)c(-c3nc4ccccc4o3)c2)c1` [Example 2.39], the “% of Axl tyrosine kinase activity inhibited at a concentration of 30 μM” value is on record as “*the compound disclosed in Example 2.39 inhibited 58.6% of Axl tyrosine kinase activity at a concentration of 30 μM”.
